# In patent US9617258B2, “Pyrrolo[2,3-d]pyrimidinyl, pyrrolo[2,3-b]pyrazinyl and pyrrolo[2,3-d]pyridinyl acrylamides” (Pfizer Inc., priority 2013, dated 2017):
# Read-outs that look alike come from different tables or passages of the source.
# Tests used:
# [1] = molecular target: T1, JAK3 enzyme (Homo sapiens (Human), UniProt P52333); assay: JAK Caliper enzyme assay at 4 μM ATP; type: biochemical
# Method: (§1) JAK Caliper Enzyme Assay at 4 μM or 1 mM ATP
# (§2) Test article was solubilized in dimethyl sulfoxide (DMSO) to a stock concentration of 30 mM. An 11-point half log dilution series was created in DMSO with a top concentration of 600 μM. […] The compound plates were diluted 1 to 60 resulting in a top final assay compound concentration of 10 μM and a 2% DMSO concentration.
# (§3) Test article and assay controls were added to a 384-well plate. Reaction mixtures contained 20 mM HEPES, pH 7.4, 10 mM magnesium chloride, 0.01% bovine serum albumin (BSA), 0.0005% Tween 20, 4 μM or 1 mM ATP and 1 μM peptide substrate. […] The assays were initiated by the addition 1 nM JAK3 enzyme and were incubated at room temperature 75 minutes for JAK3. Enzyme concentrations and incubation times were optimized for each new enzyme preps and were modified slightly over time to ensure 20%-30% phosphorylation. The assays were stopped with a final concentration of 10 mM EDTA, 0.1% Coating Reagent and 100 mM HEPES, pH=7.4. The assay plates were placed on a Caliper Life Science Lab Chip 3000 (LC3000) instrument, and each well was sampled using appropriate separation conditions to measure the unphosphorylated and phosphorylated peptide.
# [2] = molecular target: T1, JAK3 enzyme; assay: JAK Caliper enzyme assay at 1 mM ATP; type: biochemical
# Method: as §1, §2, §3
# [3] = system: IL-15 induced STAT5 phosphorylation in human whole blood lymphocytes; assay: HWB IL-15 induced STAT5 phosphorylation assay; type: cell-based; settings: Lymphocyte, IL-15 stimulated, read-out: HWB-IL15-pSTAT5 IC50
# Method: HWB IL-15 Induced STAT5 Phosphorylation Assay
# After mixing and incubating for 45 minutes at 37° C., 5 μl D-PBS (unstimulated control) or 20× stocks of 5 μl human IL-15 (final concentration is 50 ng/ml) were added, and mixed three times. After incubating 15 minutes at 37° C., 1× Lyse/Fix Buffer (BD Phosflow 5× Lyse/Fix Buffer) was added to all wells at 1000 μl/well, then incubated for 20 minutes at 37° C. and spun 5 mins at 1200 rpm. […] Following incubating at 4° C. over night, all the samples were transferred to 96-well polypropylene U-bottom plate, and checked by flow cytometry gated on total lymphocytes.
# [4] = system: IL-15 induced P-STAT5 in human PBMC; assay: PBMC IL-15 induced P-STAT5; type: cell-based; settings: IL-15 stimulated, read-out: PBMC IL15-STAT5 IC50
# Method: PBMC IL-15 Induced P-STAT5
# Frozen human PBMC (200-250 million cells/vial) was thawed at 37° C. The cells were transferred to 10 mL warm medium in a 50-mL conical tube, and centrifuged at 1,200 RPM at room temperature for 5 min. The supernatant was aspirated. […] After adding 47 ml D-PBS (37° C.) to PBMC/FBS suspension, centrifuging at 1,200 RPM at room temperature for 5 min, and aspirating the supernatant, the cells were resuspended in 20 mL warm RPMI medium. Ninety μL of cell suspension were pipetted per well in a 96-well, deep-well, V-bottom plate, and the plate was incubated at 37° C. for 30 min. […] After adding 0.8 mL staining buffer per well, the plates were centrifuged at 1,200 RPM (Beckman GS-6R or Sorvall Legend) at room temperature for 5 min, and again the supernatant was aspirated using a 8-channel or 12-channel manifold. The plate was vortexed, and 0.35 mL 90% methanol/10% H2O (−20° C.) was added per well, and the plate incubated on ice for 20 min. After again adding 0.8 mL staining buffer per well, the plates were centrifuged at 1,200 RPM (Beckman GS-6R or Sorvall Legend) at room temperature for 5 min, and again the supernatant was aspirated using a 8-channel or 12-channel manifold, and then 0.8 mL Staining buffer was added per well. […] Samples were analyzed using a BD Calibur™ or BD FACSCanto™ flow cytometer equipped with the BD High Throughput Sampler.
# [5] = Stability of JAK3 covalent inhibitors in human whole blood; type: in vitro ADME; settings: both sexes, 37° C., read-out: Human blood stability t1/2;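 further: parent compound remaining over incubation time quantified by LC-MS/MS as peak area ratio against an internal standard, using pooled K2-EDTA blood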
# Text: Stability of JAK3 Covalent Inhibitors in Rat and Human Whole Blood
# Rat blood was collected from 3 male Sprague-Dawley rats (200-250 g, Charles River Laboratories) and pooled for each study. Human blood was collected from one male and one female healthy subjects at the Occupational Health & Wellness Center at Pfizer, Groton, CT and pooled for each study. Both rat and human blood was collected freshly into K2-EDTA tubes and kept on ice. An aliquot of the blood was transferred to microtubes and pre-warmed for 10 min at 37° C. using a heat block. […] An aliquot of the incubation mixture was removed at designated time points during the course of the incubation, mixed with an aliquot of acetonitrile containing an internal standard, vortexed and centrifuged. The resulting supernatants were removed and subjected to LC-MS/MS analyses to determine parent compound concentrations. Peak area ratios of the parent compound vs the internal standard were used to determine the % of parent compound remaining vs incubation time.
# T1 sequence (P52333 whole entry, species assumed): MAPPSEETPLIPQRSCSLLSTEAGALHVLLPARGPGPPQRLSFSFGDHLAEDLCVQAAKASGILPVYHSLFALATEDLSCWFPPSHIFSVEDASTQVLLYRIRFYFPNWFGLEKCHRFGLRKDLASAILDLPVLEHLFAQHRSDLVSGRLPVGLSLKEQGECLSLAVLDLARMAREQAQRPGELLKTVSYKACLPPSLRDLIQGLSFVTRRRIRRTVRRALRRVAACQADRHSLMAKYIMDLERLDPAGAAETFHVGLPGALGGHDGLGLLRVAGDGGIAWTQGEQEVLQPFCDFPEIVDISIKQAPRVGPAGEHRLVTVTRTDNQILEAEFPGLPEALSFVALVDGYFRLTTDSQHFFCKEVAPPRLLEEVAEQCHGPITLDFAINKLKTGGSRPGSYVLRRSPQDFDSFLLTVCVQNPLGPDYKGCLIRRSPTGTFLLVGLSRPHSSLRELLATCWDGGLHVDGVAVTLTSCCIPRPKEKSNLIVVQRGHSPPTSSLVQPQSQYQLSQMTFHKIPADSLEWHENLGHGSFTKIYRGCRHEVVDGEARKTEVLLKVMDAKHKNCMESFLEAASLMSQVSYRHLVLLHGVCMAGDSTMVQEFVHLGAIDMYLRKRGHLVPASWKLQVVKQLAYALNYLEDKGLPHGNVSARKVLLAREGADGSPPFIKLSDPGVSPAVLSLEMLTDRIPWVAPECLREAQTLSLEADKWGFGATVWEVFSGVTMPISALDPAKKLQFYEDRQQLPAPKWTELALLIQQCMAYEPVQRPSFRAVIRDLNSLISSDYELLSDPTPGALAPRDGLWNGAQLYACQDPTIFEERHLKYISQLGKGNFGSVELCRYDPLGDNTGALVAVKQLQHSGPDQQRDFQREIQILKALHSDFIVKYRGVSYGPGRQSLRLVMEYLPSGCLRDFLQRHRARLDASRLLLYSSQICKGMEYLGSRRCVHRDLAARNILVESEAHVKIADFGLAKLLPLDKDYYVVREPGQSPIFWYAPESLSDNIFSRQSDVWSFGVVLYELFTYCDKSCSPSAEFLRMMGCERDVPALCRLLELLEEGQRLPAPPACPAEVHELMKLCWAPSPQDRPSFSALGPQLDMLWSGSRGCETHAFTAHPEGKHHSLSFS
IC50 ([1]; read-out: JAK3 (4 μM ATP) IC50) [nM],IC50 ([2]; read-out: JAK3 (1 mM ATP) IC50) [nM],half-life at 1 μM ([5]; whole blood) [h],Structure (SMILES),also measured
190,> 10000,,"C=CC(=O)N1C[C@H](Nc2ncnc3[nH]ccc23)[C@H]2CC[C@@H]1C2 [Example 127, 1-((1R,4R,5S)-4-(7H-pyrrolo[2,3-d]pyrimidin-4-ylamino)-2-azabicyclo[3.2.1]octan-2-yl)prop-2-en-1-one]",
,,,"C=CC(=O)N1C[C@H](Nc2ncnc3[nH]ccc23)[C@H]2CC[C@@H]1C2 (racemic) [Example 116, Rac-1-((1R,4R,5S)-4-(7H-pyrrolo[2,3-d]pyrimidin-4-ylamino)-2-azabicyclo[3.2.1]octan-2-yl)prop-2-en-1-one]",IC50 [3]: > 10000 nM; IC50 [1]: 418 nM; IC50 [4]: > 10000 nM; IC50 [2]: > 10000 nM
727,> 10000,,"C/C=C/C(=O)N1CC[C@@H]2CCN(c3ncnc4[nH]ccc34)[C@@H]2C1 [Example 84, (2E)-1-[(3aS,7aS)-1-(7H-pyrrolo[2,3-d]pyrimidin-4-yl)octahydro-6H-pyrrolo[2,3-c]pyridin-6-yl]but-2-en-1-one]",
,,,"C=CC(=O)N1CC[C@H](O)[C@@H](Nc2ncnc3[nH]ccc23)C1 (racemic) [Example 113, rac-1-[(3S,4S)-4-Hydroxy-3-(7H-pyrrolo[2,3-d]pyrimidin-4-ylamino)piperidin-1-yl]prop-2-en-1-one]",IC50 [1]: 42.4 nM; IC50 [2]: 8480 nM
0.2,20.6,,"C=CC(=O)N1CCC(Nc2cnc3[nH]cc(C(=O)N[C@@H]4C[C@H]4C(F)(F)F)c3n2)CC1 [Example 233, 2-[(1-acryloylpiperidin-4-yl)amino]-N-[(1R,2R)-2-(trifluoromethyl)cyclopropyl]-5H-pyrrolo[2,3-b]pyrazine-7-carboxamide]",
149,> 10000,> 6,"O=C(C1=CCC1)N1CC[C@@H]2CCN(c3ncnc4[nH]ccc34)[C@@H]2C1 [Example 86, cyclobut-1-en-1-yl[(3aS,7aS)-1-(7H-pyrrolo[2,3-d]pyrimidin-4-yl)octahydro-6H-pyrrolo[2,3-c]pyridin-6-yl]methanone]",
,> 10000,,"C=CC(=O)c1c[nH]c2ncnc(N[C@H]3CN(C(=O)C=C)CC[C@H]3F)c12 [Example 120, 1-(4-{[(3S,4R)-1-Acryloyl-4-fluoropiperidin-3-yl]amino}-7H-pyrrolo[2,3-d]pyrimidin-5-yl)prop-2-en-1-one]",
,,,"C/C=C/C(=O)N1CC[C@@H](O)[C@@H](Nc2ncnc3[nH]ccc23)C1 (racemic) [Example 160, rac-(2E)-1-[(3S,4R)-4-Hydroxy-3-(7H-pyrrolo[2,3-d]pyrimidin-4-ylamino)piperidin-1-yl]but-2-en-1-one]",IC50 [1]: > 10000 nM
,> 10000,,"C=CC(=O)N1CC[C@@H](Nc2cnc3[nH]ccc3n2)C1 [Example 335, (R)-1-(3-((5H-Pyrrolo[2,3-b]pyrazin-2-yl)amino)pyrrolidin-1-yl)prop-2-en-1-one]",
265,> 10000,,"C=CC(=O)N1C[C@H](Nc2ncnc3[nH]ccc23)CC[C@H]1CC [Example 124, 1-[(2R,5R)-2-Ethyl-5-(7H-pyrrolo[2,3-d]pyrimidin-4-ylamino)piperidin-1-yl]prop-2-en-1-one]",
602,,,"C=CC(=O)N1C[C@@H](Nc2ncnc3[nH]ccc23)[C@@H]2CC[C@H]1C2 [Example 126, 1-((1S,4S,5R)-4-(7H-pyrrolo[2,3-d]pyrimidin-4-ylamino)-2-azabicyclo[3.2.1]octan-2-yl)prop-2-en-1-one]",IC50 [2]: > 10000 nM
,,> 6,"C=CC(=O)N1CCC[C@H](Nc2ncnc3[nH]ccc23)[C@H]1C (racemic) [Example 121, rac-1-((2R,3S)-3-((7H-Pyrrolo[2,3-d]pyrimidin-4-yl)amino)-2-methylpiperidin-1-yl)prop-2-en-1-one]",IC50 [1]: 648 nM; IC50 [2]: > 10000 nM
,,,"C=CC(=O)N1C[C@@H]2C[C@H]1CN2c1cnc2[nH]cc(C(=O)NC(C)C)c2n1 [Example 300, 2-[(1S,4S)-5-acryloyl-2,5-diazabicyclo[2.2.1]hept-2-yl]-N-(propan-2-yl)-5H-pyrrolo[2,3-b]pyrazine-7-carboxamide]","IC50 [1]: 0.9 nM; IC50 [2]: 84.4 nM; half-life at 1 μM ([5]; whole blood (fresh, pooled, K2-EDTA)): 1.95 h"
,,1.35,"C=CC(=O)N1C[C@H](Nc2ncnc3[nH]ccc23)C[C@H](N(C)C)C1 [Example 57, 1-((3R,5S)-3-((7H-Pyrrolo[2,3-d]pyrimidin-4-yl)amino)-5-(dimethylamino)piperidin-1-yl)prop-2-en-1-one]",
,,5.72,"C=CC(=O)N1CCC[C@](C)(Nc2ncnc3[nH]ccc23)C1 [Example 70, (S)-1-(3-((7H-Pyrrolo[2,3-d]pyrimidin-4-yl)amino)-3-methylpiperidin-1-yl)prop-2-en-1-one]",
,,0.0467,"C=C(C(=O)N1CC[C@@H]2CCN(c3ncnc4[nH]ccc34)[C@@H]2C1)C(F)(F)F [Example 41, 1-((3aS,7aS)-1-(7H-Pyrrolo[2,3-d]pyrimidin-4-yl)hexahydro-1H-pyrrolo[2,3-c]pyridin-6(2H)-yl)-2-(trifluoromethyl)prop-2-en-1-one]",
,,> 5.56,"C=CC(=O)N1C[C@H](Nc2ncnc3[nH]ccc23)CC[C@@H]1CO (single isomer, unassigned) [Example 7]",
,,> 6,"C=CC(=O)N1CCC(Nc2cnc3[nH]cc(C(=O)NC4CCC4)c3n2)CC1 [Example 280, 2-[(1-acryloylpiperidin-4-yl)amino]-N-cyclobutyl-5H-pyrrolo[2,3-b]pyrazine-7-carboxamide]",
